Tested on: diarrhea-predominant IBS subjects
Assay: 3007 Study: open-label 52-week safety study, adverse events and withdrawals
[1] = Overall, N=536, % of appropriate gender

Cc1nccn1C[C@H]1CCc2c(c3cccc4c3n2CCC4)C1=O [cilansetron, (R)-(−)-4,5,6,8,9,10-hexahydro-10-[(2-methyl-1H-imidazol-1-yl)methyl]-11H-pyrido-[3,2,1-jk]-carbazol-11-one]
5 (<1%) n (%): TEAE leading to permanent discontinuation: Investigations (Overall, N=536) | TEAE leading to permanent discontinuation: Neoplasms Benign, Malignant and Unspecified (Incl Cysts and Polyps) (Overall, N=536)
3 (<1%) n (%): TEAE leading to permanent discontinuation: Nausea (Overall, N=536) | TEAE leading to permanent discontinuation: Respiratory, Thoracic and Mediastinal Disorders (Overall, N=536)
2 (1%) n (%): TEAE: Breast Cancer NOS* (P/C group) | TEAE: Breast Mass NOS* (P/C group) | TEAE: Breast and Nipple Neoplasms Malignant* (P/C group)
7 (3%) n (%): TEAE: Anxiety Symptoms (P/C group) | TEAE: Asthenic Conditions (P/C group)
64 (12%) n (%): TEAE leading to permanent discontinuation: Gastrointestinal Disorders (Overall, N=536)
4 (<1%) n (%): TEAE leading to permanent discontinuation: Fatigue (Overall, N=536) | TEAE leading to permanent discontinuation: Headache NOS (Overall, N=536) | TEAE leading to permanent discontinuation: Rectal Haemorrhage (Overall, N=536) | TEAE leading to permanent discontinuation: Skin and Subcutaneous Tissue Disorders (Overall, N=536)
0 n (%): TEAE: Acne NOS (P/C group) | TEAE: Acnes (P/C group) | TEAE: Adenomyosis* (P/C group) | TEAE: Amenorrhoea NOS* (P/C group) | TEAE: Angina Pectoris (P/C group) | TEAE: Arrhythmia NOS (P/C group) | TEAE: Asthma Aggravated (P/C group) | TEAE: Atrial Fibrillation (P/C group) | TEAE: Atrioventricular Block First Degree (P/C group) | TEAE: Bone Neoplasm Malignant (P/C group) | TEAE: Bone Neoplasms Malignant (Excl Sarcomas) (P/C group) | TEAE: Breath Sounds Decreased (P/C group) | TEAE: Bruising, Ecchymosis and Purpura (P/C group) | TEAE: Bundle Branch Block Right (P/C group) | TEAE: Calculus Renal NOS (P/C group) | TEAE: Calculus Ureteric (P/C group) | TEAE: Cardiac Conduction Disorders (P/C group) | TEAE: Cataract Unilateral (P/C group) | TEAE: Cerumen Impaction (P/C group) | TEAE: Chest Tightness (P/C group) | TEAE: Cholecystitis and Cholelithiasis (P/C group) | TEAE: Cholelithiasis (P/C group) | TEAE: Conjunctival Infections, Irritations and Inflammations (P/C group) | TEAE: Conjunctivitis (P/C group) | TEAE: Conjunctivitis Allergic (P/C group) | TEAE: Cyst NOS (P/C group) | TEAE: Dacryostenosis Acquired (P/C group) | TEAE: Deafness NOS (P/C group) | TEAE: Diabetes Mellitus Non-Insulin-Dependent (P/C group) | TEAE: Disturbances in Initiating and Maintaining Sleep (P/C group) | TEAE: Drug Hypersensitivity (P/C group) | TEAE: Dry Eye NOS (P/C group) | TEAE: Dysfunctional Uterine Bleeding* (P/C group)
3 (1%) n (%): TEAE: Apocrine and Eccrine Gland Disorders (P/C group)
4 (2%) n (%): TEAE: Breast Disorders NEC* (P/C group)
5 (2%) n (%): TEAE: Anxiety (P/C group) | TEAE: Depression (P/C group)
7 (1%) n (%): TEAE leading to permanent discontinuation: Flatulence (Overall, N=536) | TEAE leading to permanent discontinuation: General Disorders and Administration Site Conditions (Overall, N=536) | TEAE leading to permanent discontinuation: Musculoskeletal and Connective Tissue Disorders (Overall, N=536)
4 (1%) n (%): TEAE: Basal Cell Carcinoma (P/C group) | TEAE: Chest Pain (P/C group) | TEAE: Dermal and Epidermal Conditions NEC (P/C group) | TEAE: Dermatitis and Eczema (P/C group)
2 (<1%) n (%): TEAE leading to permanent discontinuation: Dyspepsia (Overall, N=536) | TEAE leading to permanent discontinuation: Muscle Cramps (Overall, N=536) | TEAE leading to permanent discontinuation: Breast Cancer NOS* [1] | TEAE: Female Reproductive Tract Infections* (Overall, gender-specific) | TEAE: Vaginal Candidiasis* (Overall, gender-specific) | TEAE: Vaginosis Fungal NOS* (Overall, gender-specific) | TEAE: Allergic Conditions NEC (P/C group) | TEAE: Blood and Lymphatic System Disorders (P/C group) | TEAE: Cardiac Signs and Symptoms NEC (P/C group) | TEAE: Contusion (P/C group)
1 (<1%) n (%): TEAE leading to permanent discontinuation: Ear and Labyrinth Disorders (Overall, N=536) | TEAE leading to permanent discontinuation: Epigastric Discomfort (Overall, N=536) | TEAE leading to permanent discontinuation: Eructation (Overall, N=536) | TEAE leading to permanent discontinuation: Eye Disorders (Overall, N=536) | TEAE leading to permanent discontinuation: Faecal Abnormality NOS (Overall, N=536) | TEAE leading to permanent discontinuation: Faecal Impaction (Overall, N=536) | TEAE leading to permanent discontinuation: Faecal Incontinence (Overall, N=536) | TEAE leading to permanent discontinuation: Faeces Hard (Overall, N=536) | TEAE leading to permanent discontinuation: Fibroma NOS (Overall, N=536) | TEAE leading to permanent discontinuation: Gastric Irritation (Overall, N=536) | TEAE leading to permanent discontinuation: Gastrointestinal Motility Disorder NOS (Overall, N=536) | TEAE leading to permanent discontinuation: Haemorrhoidal Haemorrhage (Overall, N=536) | TEAE leading to permanent discontinuation: Hallucination NOS (Overall, N=536) | TEAE leading to permanent discontinuation: Hallucination, Auditory (Overall, N=536) | TEAE leading to permanent discontinuation: Headache NOS Aggravated (Overall, N=536) | TEAE leading to permanent discontinuation: Heart Rate Increased (Overall, N=536) | TEAE leading to permanent discontinuation: Hepatobiliary Disorders (Overall, N=536) | TEAE leading to permanent discontinuation: Hepatosplenomegaly NOS (Overall, N=536) | TEAE leading to permanent discontinuation: Hiatus Hernia (Overall, N=536) | TEAE leading to permanent discontinuation: Irritable Bowel Syndrome Aggravated (Overall, N=536) | TEAE leading to permanent discontinuation: Lethargy (Overall, N=536) | TEAE leading to permanent discontinuation: Metabolism and Nutrition Disorders (Overall, N=536) | TEAE leading to permanent discontinuation: Migraine NOS (Overall, N=536) | TEAE leading to permanent discontinuation: Pregnancy, Puerperium and Perinatal Conditions (Overall, N=536) | TEAE leading to permanent discontinuation: Pruritus NOS (Overall, N=536) | TEAE leading to permanent discontinuation: Psychiatric Disorders (Overall, N=536) | TEAE leading to permanent discontinuation: Psychotic Disorder NOS (Overall, N=536) | TEAE leading to permanent discontinuation: Rash Macular (Overall, N=536) | TEAE leading to permanent discontinuation: Rash NOS (Overall, N=536) | TEAE leading to permanent discontinuation: Rectal Disorder NOS (Overall, N=536) | TEAE leading to permanent discontinuation: Rectal Tenesmus (Overall, N=536) | TEAE leading to permanent discontinuation: Renal and Urinary Disorders (Overall, N=536) | TEAE leading to permanent discontinuation: Somnolence (Overall, N=536) | TEAE leading to permanent discontinuation: Stomach Discomfort (Overall, N=536) | TEAE leading to permanent discontinuation: Suicidal Ideation (Overall, N=536) | TEAE leading to permanent discontinuation: Urticaria NOS (Overall, N=536) | TEAE leading to permanent discontinuation: Vertigo (Overall, N=536) | TEAE leading to permanent discontinuation: Visual Acuity Reduced (Overall, N=536) | TEAE leading to permanent discontinuation: Vomiting NOS (Overall, N=536) | TEAE leading to permanent discontinuation: White Blood Cells Urine Positive (Overall, N=536) | TEAE leading to permanent discontinuation: Benign Ovarian Tumour* [1] | TEAE leading to permanent discontinuation: Ovarian Cancer NOS* [1] | TEAE leading to permanent discontinuation: Ovarian Cystadenofibroma* [1] | TEAE leading to permanent discontinuation: Pregnancy NOS* [1] | TEAE: Prostate Examination Abnormal* (Overall, gender-specific) | TEAE: Smear Cervix Abnormal* (Overall, gender-specific) | TEAE: Vaginitis Bacterial NOS* (Overall, gender-specific) | TEAE: Vaginitis* (Overall, gender-specific) | TEAE: Abdominal Therapeutic Procedures NEC (P/C group) | TEAE: Abdominoplasty (P/C group) | TEAE: Abnormal Chest Sounds NOS (P/C group) | TEAE: Acquired Hypothyroidism (P/C group) | TEAE: Acrochordons (P/C group) | TEAE: Age Related Issues (P/C group) | TEAE: Allergies to Foods, Food Additives, Drugs and Other Chemicals (P/C group) | TEAE: Allergy to Insect Sting (P/C group) | TEAE: Alopecia (P/C group) | TEAE: Alopecias (P/C group) | TEAE: Anaemia NOS (P/C group) | TEAE: Anaemias NEC (P/C group) | TEAE: Anorexia (P/C group) | TEAE: Anxiety Aggravated (P/C group) | TEAE: Appetite Disorders (P/C group) | TEAE: Asthma NOS (P/C group) | TEAE: Atopic Disorders (P/C group) | TEAE: Behaviour and Socialisation Disturbances (P/C group) | TEAE: Benign Ovarian Tumour* (P/C group) | TEAE: Biliary Tract Disorder NOS (P/C group) | TEAE: Binocular Eye Movement Disorder NOS (P/C group) | TEAE: Bladder Disorders NEC (P/C group) | TEAE: Bladder Infections and Inflammations (P/C group) | TEAE: Bladder Prolapse (P/C group) | TEAE: Bladder and Urethral Symptoms (P/C group) | TEAE: Bradyarrhythmia (P/C group) | TEAE: Breast Calcifications* (P/C group) | TEAE: Breast Disorder NOS* (P/C group) | TEAE: Breathing Abnormalities (P/C group) | TEAE: Bronchospasm and Obstruction (P/C group) | TEAE: Cardiac Fibrillation NOS (P/C group) | TEAE: Cardiac Flutter (P/C group) | TEAE: Cataracts (Excl Congenital) (P/C group) | TEAE: Chest Discomfort (P/C group) | TEAE: Congenital, Familial and Genetic Disorders (P/C group) | TEAE: Cystitis Interstitial (P/C group) | TEAE: Dehydration (P/C group) | TEAE: Depression Aggravated (P/C group) | TEAE: Dermatitis Allergic (P/C group) | TEAE: Dermatitis Ascribed to Specific Agent (P/C group) | TEAE: Dermatitis Contact (P/C group) | TEAE: Dermatitis Medicamentosa (P/C group) | TEAE: Dermatitis NOS (P/C group) | TEAE: Dermographism (P/C group) | TEAE: Diabetes Mellitus (Incl Subtypes) (P/C group) | TEAE: Diabetes Mellitus Aggravated (P/C group) | TEAE: Dyshidrosis (P/C group)
6 (2%) n (%): TEAE: Cardiac Disorders (P/C group) | TEAE: Cough (P/C group) | TEAE: Coughing and Associated Symptoms (P/C group) | TEAE: Depressive Disorders (P/C group)
8 (1%) n (%): TEAE leading to permanent discontinuation: Nervous System Disorders (Overall, N=536)
83 (15%) n (%): Total Number of Subjects with at Least One TEAE Leading to Discontinuation of Study Medication (Overall, N=536)
